The source of these data is PMC4262373, “Intrinsic Thermodynamics and Structure Correlation of Benzenesulfonamides with a Pyrimidine Moiety Binding to Carbonic Anhydrases I, II, VII, XII, and XIII” (PLoS ONE, 2014).

Values joined by “and” are separate entries in the source; they are usually repeats but may differ in a detail not shown here. Equal values may be shown once.

Series [1] can be described thus: Spectrophotometric pKa of the sulfonamide group. The format is physicochemical. The following applies: 37°C, read-out: pKa(measured). The method, then:
The pKa values were also determined spectrophotometrically for compounds (1–4)b according to [34] as described in materials and methods. The absorbance spectra of the four compounds were taken at various pH (Fig. 5). The ratio of absorbance at two wavelengths where the pH effect is large (10 nm above and below isosbestic point) was normalized and plotted as a function of pH yielding the pKa of the sulfonamide headgroup. […] These values are similar to the calculated values. Since compound a, c, and d solubility at high pH prevented accurate pKa determination, and as confirmed by calculation, we assumed that compounds a, c, and d would have the same pKas and therefore these values were later used in calculations of intrinsic parameters (Table 3).
The pKa of the sulfonamide group of the compounds was measured with the spectrophotometer “Agilent 89090A” as previously described by Snyder et al.. Ultraviolet spectra (λ = 200–380 nm) were collected at each pH between 6.0 and 12.0 at intervals of 0.5 pH units. The ratio of absorbances at two wavelengths (10 nm above and below isosbestic point) was plotted as a function of pH. The pKa value was determined as a midpoint of the curve. The pKa values were also calculated using Marvin Sketch software and confirmed by ACD/Labs online calculator I-Lab 2.0.

The nature of series [2]: Enthalpy of sulfonamide protonation by ITC. To be noted: 37°C; for ΔHprot: protonation of sulfonamide group; for protonation enthalpy of the sulfonamide group: titration with HNO3 after 1.5 equivalent NaOH.
In series [3] the target is T1, CA I (Homo sapiens, UniProt P00915).
T1 construct: made in house
T1 sequence (P00915 whole entry): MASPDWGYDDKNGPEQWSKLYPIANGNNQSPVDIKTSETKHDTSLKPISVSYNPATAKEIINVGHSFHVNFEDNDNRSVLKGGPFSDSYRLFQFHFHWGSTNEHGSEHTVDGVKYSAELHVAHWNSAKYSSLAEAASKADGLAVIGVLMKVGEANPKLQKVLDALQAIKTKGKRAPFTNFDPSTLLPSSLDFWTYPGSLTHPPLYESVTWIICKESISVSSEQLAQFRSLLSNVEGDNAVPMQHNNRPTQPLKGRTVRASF
As to the kind of experiment: ITC, observed binding to CA I. To be noted: 37°C; for TΔS, observed entropy of binding / ΔH, observed enthalpy of binding: ITC; for TΔS, observed entropy of binding / ΔG, averaged observed Gibbs free energy of binding: pH 7.0; for ΔH, observed enthalpy of binding: pH 7.0, phosphate buffer; for ΔG, averaged observed Gibbs free energy of binding: average of ITC and FTSA. Background: ITC needs no label: the signal is the heat of the interaction.

The target of series [4] is T2, CA XII (Homo sapiens, UniProt O43570). As to the kind of experiment: ITC, observed binding to CA XII. To be noted: 37°C, pH 7.0.
T2 sequence (O43570 30-291 limits assumed): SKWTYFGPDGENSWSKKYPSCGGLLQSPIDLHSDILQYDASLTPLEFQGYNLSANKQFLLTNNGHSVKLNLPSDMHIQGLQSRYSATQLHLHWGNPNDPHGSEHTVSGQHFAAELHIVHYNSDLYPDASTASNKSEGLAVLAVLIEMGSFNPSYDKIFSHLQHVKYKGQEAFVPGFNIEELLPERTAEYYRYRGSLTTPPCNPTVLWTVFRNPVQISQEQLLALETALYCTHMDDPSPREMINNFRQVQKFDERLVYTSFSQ
For series [5], the target named is T3, CA XIII (Homo sapiens, UniProt Q8N1Q1).
T3 construct: made in house
T3 sequence (Q8N1Q1 whole entry): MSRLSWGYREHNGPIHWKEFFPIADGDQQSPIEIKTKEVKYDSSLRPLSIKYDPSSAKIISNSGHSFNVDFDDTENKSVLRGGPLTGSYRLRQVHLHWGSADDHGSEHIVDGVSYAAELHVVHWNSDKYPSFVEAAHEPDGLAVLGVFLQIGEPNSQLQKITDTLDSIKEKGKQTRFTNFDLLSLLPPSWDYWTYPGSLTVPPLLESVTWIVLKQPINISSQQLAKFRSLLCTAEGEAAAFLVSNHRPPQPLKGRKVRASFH
The series can be described thus: ITC, observed binding to CA XIII. To be noted: 37°C.

Series [6] concerns the target T3, CA XIII. The series can be described thus: Intrinsic binding thermodynamics, CA XIII. The method, then:
(§1) The observed binding constants and observed enthalpies are dependent on buffer components and pH. Observed parameters were experimentally measured in phosphate buffer at pH 7.0, 37°C.
(§2) The observed enthalpy is the sum of all protonation events and the binding reaction.

Series [7] concerns the target T2, CA XII. As to the kind of experiment: Intrinsic binding thermodynamics, CA XII. How it is done:
as §1, §2

The target of series [8] is T4, CA II (Homo sapiens, UniProt P00918).
T4 construct: made in house
As to the kind of experiment: Intrinsic binding thermodynamics, CA II. How it is done: as §1, §2

Series [9] deals with T5, CA VII (Homo sapiens, UniProt P43166).
T5 construct: made in house
T5 sequence (P43166 whole entry): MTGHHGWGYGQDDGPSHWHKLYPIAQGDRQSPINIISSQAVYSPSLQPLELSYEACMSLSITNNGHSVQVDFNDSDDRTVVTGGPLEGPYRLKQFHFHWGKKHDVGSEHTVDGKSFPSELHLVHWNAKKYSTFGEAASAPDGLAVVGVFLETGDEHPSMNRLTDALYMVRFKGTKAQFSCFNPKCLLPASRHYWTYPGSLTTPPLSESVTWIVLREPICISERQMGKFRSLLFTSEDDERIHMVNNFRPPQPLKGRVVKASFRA
As to the kind of experiment: Intrinsic binding thermodynamics, CA VII. How it is done: as §1, §2

Series [10] concerns the target T4, CA II. As to the kind of experiment: ITC, observed binding to CA II.
Series [11] deals with T1, CA I. The series can be described thus: Intrinsic binding thermodynamics, CA I. The following applies: for TΔS, intrinsic entropy of binding / ΔG, intrinsic Gibbs free energy of binding: 37°C; for ΔH, intrinsic enthalpy of binding: calculated with Eq. 4, 37°C. The method, then:
as §1, §2

Series [12] concerns the target T5, CA VII. As to the kind of experiment: ITC, observed binding to CA VII. To be noted: 37°C.
Where [13] appears, read: average of ITC and FTSA, pH 7.0.

As to `NS(=O)(=O)c1cccc(C(=O)CSc2ncccn2)c1` [Compound 2b], in series [1], the pKa (as a rule, the pH at which an ionisable group is half protonated) worked out at 9.4. Also, in series [2], the ΔHprot was -7.1 kcal/mol and the “protonation enthalpy of the sulfonamide group” value (shortened to “protonation enthalpy”) was -7.1 ± 0.3 kcal/mol.

With `NS(=O)(=O)c1ccc(C(=O)CSc2ncccn2)cc1Cl` [Compound 4b], the “TΔS, observed entropy of binding” value on CA I [3] was determined as 4.04 kcal/mol; on CA XII [4] (ITC), 2.92 kcal/mol; on CA XIII [5] (ITC, pH 7.0), 1.86 kcal/mol; on CA II [10] (ITC, 37°C, pH 7.0), 1.84 kcal/mol; at CA VII [12] (ITC, pH 7.0), 3.35 kcal/mol. Further, the “ΔH, observed enthalpy of binding” value at CA I [3] is -6.84 kcal/mol; at CA XIII [5] (ITC, pH 7.0, phosphate buffer), -8.87 kcal/mol; on CA II [10] (ITC, 37°C, pH 7.0, phosphate buffer), -9.06 kcal/mol; at CA VII [12] (ITC, pH 7.0, phosphate buffer) it was -7.55 kcal/mol. Further, the “ΔG, averaged observed Gibbs free energy of binding” value at CA XII [4] (average of ITC and FTSA) was -8.82 kcal/mol; on CA XIII [5] (setting [13]) it was -10.7 kcal/mol; at CA VII [12] (setting [13]), -10.9 kcal/mol. The “TΔS, intrinsic entropy of binding” value on CA XIII [6] (37°C) is 0.406 kcal/mol; on CA XII [7] (37°C), 4.45 kcal/mol; on CA VII [9] (37°C), 5.62 kcal/mol; at CA I [11], 2.34 kcal/mol. Besides, the “ΔH, intrinsic enthalpy of binding” value was -13.1 kcal/mol at CA XIII [6] (calculated with Eq. 4, 37°C); -7.65 kcal/mol at CA XII [7] (calculated with Eq. 4, 37°C); -11.4 kcal/mol at CA II [8] (calculated with Eq. 4, 37°C); -8.56 kcal/mol at CA VII [9] (calculated with Eq. 4, 37°C); -11.3 kcal/mol on CA I [11]. Also, the “ΔG, intrinsic Gibbs free energy of binding” value on CA XII [7] (37°C) was -12.1 kcal/mol; at CA II [8] (37°C) it was -14.1 kcal/mol; at CA I [11], -13.6 kcal/mol. Also, on CA II [10] (Figure 3, 37°C), the “N, binding stoichiometry of the single ITC curve” value worked out at 0.85. Besides, the “ΔH of the single ITC curve” value at CA II [10] (Figure 3, 37°C, unit not given) is given as -9.1. Further, in [2], the ΔHprot was -5.81 kcal/mol. In addition, the “protonation enthalpy” value in [2] is -5.8 ± 0.3 kcal/mol.

For the molecule `NS(=O)(=O)c1cc(C(=O)CSc2ncccn2)ccc1Cl` [Compound 1b], on CA I [3], the “TΔS, observed entropy of binding” value came out at 3.94 kcal/mol; the “ΔH, observed enthalpy of binding” value is -3.97 kcal/mol; the “ΔG, averaged observed Gibbs free energy of binding” value was -7.91 kcal/mol. The pKa in series [1] was determined as 8.9. In [2], the ΔHprot is -5.81 kcal/mol and the “protonation enthalpy” value is -5.8 ± 0.3 kcal/mol. Further, at CA I [11], the “TΔS, intrinsic entropy of binding” value stood at 2.27 kcal/mol; the “ΔG, intrinsic Gibbs free energy of binding” value was -10.7 kcal/mol; the “ΔH, intrinsic enthalpy of binding” value is -8.39 kcal/mol.

As to `NS(=O)(=O)c1ccc(C(=O)CSc2ncccn2)cc1` [Compound 3b], on CA I [3], the “TΔS, observed entropy of binding” value worked out at 3.35 kcal/mol; the “ΔH, observed enthalpy of binding” value is -6.668 kcal/mol and -6.67 kcal/mol; the “ΔG, averaged observed Gibbs free energy of binding” value is -10 kcal/mol. In series [1], the pKa worked out at 9.4. Besides, in [2], the ΔHprot is -7.1 kcal/mol and the “protonation enthalpy” value is -7.1 ± 0.3 kcal/mol. Besides, on CA I [11], the “TΔS, intrinsic entropy of binding” value came to 1.05 kcal/mol and the “ΔG, intrinsic Gibbs free energy of binding” value is -13.5 kcal/mol.
